The values below come from ChEMBL document CHEMBL1759909, “Discovery of 3-aryl-5-acylpiperazinyl-pyrazoles as antagonists to the NK3 receptor” (Bioorg Med Chem Lett, 2011).

Data set [1] can be described thus: in vitro. The settings on record: rat, liver microsomes.
Data set [2] in a line: in vitro. The conditions noted are these: rat, plasma.
For data set [3], the species on record is Rattus norvegicus. The conditions noted are these: in vivo, po, 3 mg/kg.
Data set [4] is filed under the species Rattus norvegicus. The settings on record: in vivo, po, 3 mg/kg. The source holds these as a separate data set.
Data set [5] can be described thus: in vivo. The settings on record: Sprague-Dawley, rat.
Data set [6] is described as follows: in vivo. The conditions noted are these: Sprague-Dawley, rat, iv, 1 mg/kg.
A short description of data set [7]: in vivo. The conditions noted are these: CD1, mouse, brain/plasma, ip, 5 mg/kg.
Data set [8] can be described thus: in vivo. The settings on record: CD1, mouse, brain, ip, 5 mg/kg.
Data set [9] is described as follows: in vivo. The conditions noted are these: Sprague-Dawley, rat, iv, 1 mg/kg. This is another data set of the same source.
Data set [10] is described as follows: in vivo. The settings on record: Sprague-Dawley, rat, plasma, po, 3 mg/kg.
A short description of data set [11]: in vivo. The settings on record: Sprague-Dawley, rat, po, 3 mg/kg.

`COc1ccccc1N1CCN(C(=O)c2cc(-c3ccc(Cl)cc3)n[nH]2)[C@@H](C)C1` showed a half-life in the data set “in vitro [1]” of 2 min. The same compound had an amount remaining at 1 h in “in vitro [2]” of 100%.

For `COc1ccccc1N1CCN(C(=O)c2cc(-c3ccc(Cl)cc3)n(C)n2)CC1`, the AUC in the data set listed under Rattus norvegicus [3] is 90501 ng·min/mL. This compound also returned a F in the data set filed under Rattus norvegicus [4] of 53%. For the same compound, the half-life in the data set “in vivo [5]” was found to be 310 min; in the data set “in vitro [1]”, 40 min. Besides, the Vd in “in vivo [6]” turned out to be 3.3 L/kg. This compound also showed a Kp at 10 min in “in vivo [7]” of 0.64. Moreover, the concentration at 10 min in “in vivo [8]” is 1700 ng/g. In the data set “in vitro [2]”, this compound returned a fraction remaining at 1 h of 100%.

The compound `COc1ccccc1N1CCN(C(=O)c2cc(-c3ccc(Cl)cc3Cl)n[nH]2)CC1` displayed a half-life in “in vitro [1]” of 45 min. Moreover, the amount remaining at 1 h in the data set “in vitro [2]” was 5%.

In the case of `CC(=O)N(C)C1(c2ccccc2)CCN(CCC[C@]2(c3ccc(Cl)c(Cl)c3)CCCN(C(=O)c3ccccc3)C2)CC1` [OSANETANT], the half-life came to 110 min in “in vivo [5]” and 23 min in the data set “in vitro [1]”. Besides, in the data set “in vivo [6]”, the Vd worked out at 8.7 L/kg. The compound also showed a clearance in the data set “in vivo [9]” of 57 mL/min/kg. Also, the AUC in the data set “in vivo [10]” is 114 ng·h/mL. For the same compound, in “in vivo [11]”, the bioavailability came out at 17%. This compound also registered a Kp at 10 min in “in vivo [7]” of 0.03. Besides, the concentration at 10 min in “in vivo [8]” was determined as 30 ng/g.

As to `CC[C@H](NC(=O)c1c(O)c(-c2ccccc2)nc2ccccc12)c1ccccc1` [TALNETANT], the half-life in “in vivo [5]” worked out at 450 min; in the data set “in vitro [1]”, 60 min. The compound further registered a Vd in the data set “in vivo [6]” of 1.4 L/kg. The compound also displayed a clearance in “in vivo [9]” of 1.9 mL/min/kg. The AUC in “in vivo [10]” was 15600 ng·h/mL. In addition, in “in vivo [11]”, the bioavailability was found to be 53%. Moreover, the Kp at 10 min in the data set “in vivo [7]” is 0.07. The concentration at 10 min in “in vivo [8]” was found to be 340 ng/g. The compound also came in with an amount remaining at 1 h in “in vitro [2]” of 100%.
